ChEMBL document CHEMBL5724806, “Unraveling interindividual differences and functional consequences of gut microbial metabolism of immunosuppressants” (2024)

How the values were obtained:
Assay type in all cases: ADME
[1] = The drug is tested on Lactobacillus gasseri strain: DSM20243 for biotransformation under anaerobic condition. The drug concentrations were measured over 6 timepoints collected between 0 and 12 hours of incubation by liquid-chromatography-coupled mass spectrometry (LC–MS); set-up: dose 5 uM, timepoint 0, 1.5, 3, 6, 9, 12 hours; settings: 5 µM
[2] = The drug is tested on the gut metagenome community of A-07 with ENA study accession number: PRJEB31790 for biotransformation under anaerobic condition. The drug concentrations were measured over 7 timepoints collected between 0 and 12 hours of incubation by liquid-chromatography-coupled mass spectrometry (LC–MS); set-up: dose 5 uM, timepoint 0, 0.75, 1.5, 3, 6, 9, 12 hours; settings: 5 µM
[3] = The drug is tested on Gemella morbillorum strain: DSM20572 for biotransformation under microaerobic condition. The drug concentrations were measured over 6 timepoints collected between 0 and 12 hours of incubation by liquid-chromatography-coupled mass spectrometry (LC–MS); set-up: dose 5 uM, timepoint 0, 1.5, 3, 6, 9, 12 hours; settings: 5 µM
[4] = The drug is tested on Dorea formicigenerans strain: DSM3992 for biotransformation under anaerobic condition. The drug concentrations were measured over 6 timepoints collected between 0 and 12 hours of incubation by liquid-chromatography-coupled mass spectrometry (LC–MS); set-up: dose 5 uM, timepoint 0, 1.5, 3, 6, 9, 12 hours; settings: 5 µM
[5] = The drug is tested on Bacteroides stercoris strain: HM 1036 for biotransformation under anaerobic condition. The drug concentrations were measured over 6 timepoints collected between 0 and 12 hours of incubation by liquid-chromatography-coupled mass spectrometry (LC–MS); set-up: dose 5 uM, timepoint 0, 1.5, 3, 6, 9, 12 hours; settings: 5 µM
[6] = The drug is tested on Clostridium bolteae strain: DSM15670 for biotransformation under anaerobic condition. The drug concentrations were measured over 6 timepoints collected between 0 and 12 hours of incubation by liquid-chromatography-coupled mass spectrometry (LC–MS); set-up: dose 5 uM, timepoint 0, 1.5, 3, 6, 9, 12 hours; settings: enterocloster bolteae, 5 µM
[7] = The drug is tested on the gut metagenome community of P-04 with ENA study accession number: PRJEB31790 for biotransformation under microaerobic condition. The drug concentrations were measured over 7 timepoints collected between 0 and 12 hours of incubation by liquid-chromatography-coupled mass spectrometry (LC–MS); set-up: dose 5 uM, timepoint 0, 0.75, 1.5, 3, 6, 9, 12 hours; settings: 5 µM
[8] = The drug is tested on Bifidobacterium longum strain: DSM20088 for biotransformation under microaerobic condition. The drug concentrations were measured over 6 timepoints collected between 0 and 12 hours of incubation by liquid-chromatography-coupled mass spectrometry (LC–MS); set-up: dose 5 uM, timepoint 0, 1.5, 3, 6, 9, 12 hours; settings: 5 µM
[9] = The drug is tested on Actinomyces naeslundi strain: DSM43013 for biotransformation under microaerobic condition. The drug concentrations were measured over 6 timepoints collected between 0 and 12 hours of incubation by liquid-chromatography-coupled mass spectrometry (LC–MS); set-up: dose 5 uM, timepoint 0, 1.5, 3, 6, 9, 12 hours; settings: actinomyces naeslundii, 5 µM
[10] = The drug is tested on the gut metagenome community of T-05 with ENA study accession number: PRJEB31790 for biotransformation under anaerobic condition. The drug concentrations were measured over 7 timepoints collected between 0 and 12 hours of incubation by liquid-chromatography-coupled mass spectrometry (LC–MS); set-up: dose 5 uM, timepoint 0, 0.75, 1.5, 3, 6, 9, 12 hours; settings: 5 µM
[11] = The drug is tested on the gut metagenome community of P-03 with ENA study accession number: PRJEB31790 for biotransformation under microaerobic condition. The drug concentrations were measured over 7 timepoints collected between 0 and 12 hours of incubation by liquid-chromatography-coupled mass spectrometry (LC–MS); set-up: dose 5 uM, timepoint 0, 0.75, 1.5, 3, 6, 9, 12 hours; settings: 5 µM
[12] = The drug is tested on Bifidobacterium longum strain: DSM20088 for biotransformation under anaerobic condition. The drug concentrations were measured over 6 timepoints collected between 0 and 12 hours of incubation by liquid-chromatography-coupled mass spectrometry (LC–MS); set-up: dose 5 uM, timepoint 0, 1.5, 3, 6, 9, 12 hours; settings: 5 µM
[13] = The drug is tested on Blautia hansenii strain: DSM20583 for biotransformation under anaerobic condition. The drug concentrations were measured over 6 timepoints collected between 0 and 12 hours of incubation by liquid-chromatography-coupled mass spectrometry (LC–MS); set-up: dose 5 uM, timepoint 0, 1.5, 3, 6, 9, 12 hours; settings: 5 µM
[14] = The drug is tested on Bacteroides thetaiotaomicron strain: DSM2079 for biotransformation under anaerobic condition. The drug concentrations were measured over 6 timepoints collected between 0 and 12 hours of incubation by liquid-chromatography-coupled mass spectrometry (LC–MS); set-up: dose 5 uM, timepoint 0, 1.5, 3, 6, 9, 12 hours; settings: 5 µM
[15] = The drug is tested on Lactobacillus paracasei strain: ATCC27092 for biotransformation under microaerobic condition. The drug concentrations were measured over 6 timepoints collected between 0 and 12 hours of incubation by liquid-chromatography-coupled mass spectrometry (LC–MS); set-up: dose 5 uM, timepoint 0, 1.5, 3, 6, 9, 12 hours; settings: lacticaseibacillus paracasei, 5 µM
[16] = The drug is tested on Clostridium scindens strain: DSM5676 for biotransformation under anaerobic condition. The drug concentrations were measured over 6 timepoints collected between 0 and 12 hours of incubation by liquid-chromatography-coupled mass spectrometry (LC–MS); set-up: dose 5 uM, timepoint 0, 1.5, 3, 6, 9, 12 hours; settings: 5 µM
[17] = The drug is tested on Streptococcus anginosus strain: DSM20563 for biotransformation under microaerobic condition. The drug concentrations were measured over 6 timepoints collected between 0 and 12 hours of incubation by liquid-chromatography-coupled mass spectrometry (LC–MS); set-up: dose 5 uM, timepoint 0, 1.5, 3, 6, 9, 12 hours; settings: 5 µM
[18] = The drug is tested on Clostridium ramosum strain: DSM1402 for biotransformation under anaerobic condition. The drug concentrations were measured over 6 timepoints collected between 0 and 12 hours of incubation by liquid-chromatography-coupled mass spectrometry (LC–MS); set-up: dose 5 uM, timepoint 0, 1.5, 3, 6, 9, 12 hours; settings: thomasclavelia ramosa, 5 µM
[19] = The drug is tested on Gemella haemolysans strain: DSM107751 for biotransformation under anaerobic condition. The drug concentrations were measured over 6 timepoints collected between 0 and 12 hours of incubation by liquid-chromatography-coupled mass spectrometry (LC–MS); set-up: dose 5 uM, timepoint 0, 1.5, 3, 6, 9, 12 hours; settings: 5 µM
[20] = The drug is tested on Escherichia coli strain: DSM27469 for biotransformation under anaerobic condition. The drug concentrations were measured over 6 timepoints collected between 0 and 12 hours of incubation by liquid-chromatography-coupled mass spectrometry (LC–MS); set-up: dose 5 uM, timepoint 0, 1.5, 3, 6, 9, 12 hours; settings: 5 µM
[21] = The drug is tested on Bacteroides caccae strain: DSM19024 for biotransformation under anaerobic condition. The drug concentrations were measured over 6 timepoints collected between 0 and 12 hours of incubation by liquid-chromatography-coupled mass spectrometry (LC–MS); set-up: dose 5 uM, timepoint 0, 1.5, 3, 6, 9, 12 hours; settings: 5 µM
[22] = The drug is tested on Streptococcus mitis strain: DSM12643 for biotransformation under microaerobic condition. The drug concentrations were measured over 6 timepoints collected between 0 and 12 hours of incubation by liquid-chromatography-coupled mass spectrometry (LC–MS); set-up: dose 5 uM, timepoint 0, 1.5, 3, 6, 9, 12 hours; settings: 5 µM
[23] = The drug is tested on the gut metagenome community of A-02 with ENA study accession number: PRJEB31790 for biotransformation under anaerobic condition. The drug concentrations were measured over 7 timepoints collected between 0 and 12 hours of incubation by liquid-chromatography-coupled mass spectrometry (LC–MS); set-up: dose 5 uM, timepoint 0, 0.75, 1.5, 3, 6, 9, 12 hours; settings: 5 µM
[24] = The drug is tested on Streptococcus salivarius strain: DSM20560 for biotransformation under anaerobic condition. The drug concentrations were measured over 6 timepoints collected between 0 and 12 hours of incubation by liquid-chromatography-coupled mass spectrometry (LC–MS); set-up: dose 5 uM, timepoint 0, 1.5, 3, 6, 9, 12 hours; settings: 5 µM
[25] = The drug is tested on Parabacteroides distasonis strain: DSM20701 for biotransformation under anaerobic condition. The drug concentrations were measured over 6 timepoints collected between 0 and 12 hours of incubation by liquid-chromatography-coupled mass spectrometry (LC–MS); set-up: dose 5 uM, timepoint 0, 1.5, 3, 6, 9, 12 hours; settings: 5 µM
[26] = The drug is tested on the gut metagenome community of A-05 with ENA study accession number: PRJEB31790 for biotransformation under microaerobic condition. The drug concentrations were measured over 7 timepoints collected between 0 and 12 hours of incubation by liquid-chromatography-coupled mass spectrometry (LC–MS); set-up: dose 5 uM, timepoint 0, 0.75, 1.5, 3, 6, 9, 12 hours; settings: 5 µM

SMILES	Bacterial Biotransformation [1]	Bacterial Biotransformation [2]	Bacterial Biotransformation [3]	Bacterial Biotransformation [4]	Bacterial Biotransformation [5]	Bacterial Biotransformation [6]	Bacterial Biotransformation [7]	Bacterial Biotransformation [8]	Bacterial Biotransformation [9]	Bacterial Biotransformation [10]	Bacterial Biotransformation [11]	Bacterial Biotransformation [12]	Bacterial Biotransformation [13]	Bacterial Biotransformation [14]	Bacterial Biotransformation [15]	Bacterial Biotransformation [16]	Bacterial Biotransformation [17]	Bacterial Biotransformation [18]	Bacterial Biotransformation [19]	Bacterial Biotransformation [20]	also measured
C[C@@H]1C[C@H]2[C@@H]3CCC4=CC(=O)C=C[C@]4(C)[C@@]3(F)[C@@H](O)C[C@]2(C)[C@@]1(O)C(=O)CO [DEXAMETHASONE]	Compound NOT metabolized	Compound metabolized	Compound NOT metabolized	Compound NOT metabolized	Compound NOT metabolized	Compound NOT metabolized	Compound NOT metabolized	Compound NOT metabolized	Compound NOT metabolized	Compound NOT metabolized	Compound NOT metabolized	Compound NOT metabolized	Compound NOT metabolized	Compound NOT metabolized	Compound NOT metabolized	Compound metabolized	Compound NOT metabolized	Compound NOT metabolized	Compound NOT metabolized	Compound NOT metabolized	Bacterial Biotransformation [21]: Compound NOT metabolized; Bacterial Biotransformation [22]: Compound NOT metabolized; Bacterial Biotransformation [23]: Compound metabolized; Bacterial Biotransformation [24]: Compound NOT metabolized; Bacterial Biotransformation [25]: Compound NOT metabolized; Bacterial Biotransformation [26]: Compound NOT metabolized
COc1ccc([C@@H]2Sc3ccccc3N(CCN(C)C)C(=O)[C@@H]2OC(C)=O)cc1 [DILTIAZEM]	Compound NOT metabolized	Compound metabolized	Compound metabolized	Compound NOT metabolized	Compound NOT metabolized	Compound NOT metabolized	Compound NOT metabolized	Compound NOT metabolized	Compound NOT metabolized	Compound NOT metabolized	Compound metabolized	Compound NOT metabolized	Compound NOT metabolized	Compound metabolized	Compound NOT metabolized	Compound NOT metabolized	Compound NOT metabolized	Compound NOT metabolized	Compound NOT metabolized	Compound NOT metabolized	Bacterial Biotransformation [21]: Compound NOT metabolized; Bacterial Biotransformation [22]: Compound NOT metabolized; Bacterial Biotransformation [23]: Compound metabolized; Bacterial Biotransformation [24]: Compound NOT metabolized; Bacterial Biotransformation [25]: Compound metabolized; Bacterial Biotransformation [26]: Compound metabolized
CO[C@H]1C[C@@H]2CC[C@@H](C)[C@@](O)(O2)C(=O)C(=O)N2CCCC[C@H]2C(=O)O[C@H]([C@H](C)C[C@@H]2CC[C@@H](OCCO)[C@H](OC)C2)CC(=O)[C@H](C)/C=C(\C)[C@@H](O)[C@@H](OC)C(=O)[C@H](C)C[C@H](C)/C=C/C=C/C=C/1C [EVEROLIMUS]	Compound NOT metabolized	Compound metabolized	Compound NOT metabolized	Compound metabolized	Compound NOT metabolized	Compound metabolized	Compound NOT metabolized	Compound NOT metabolized	Compound NOT metabolized	Compound NOT metabolized	Compound NOT metabolized	Compound NOT metabolized	Compound metabolized	Compound NOT metabolized	Compound NOT metabolized	Compound metabolized	Compound NOT metabolized	Compound NOT metabolized	Compound NOT metabolized	Compound NOT metabolized	Bacterial Biotransformation [21]: Compound NOT metabolized; Bacterial Biotransformation [22]: Compound NOT metabolized; Bacterial Biotransformation [23]: Compound metabolized; Bacterial Biotransformation [24]: Compound NOT metabolized; Bacterial Biotransformation [25]: Compound NOT metabolized; Bacterial Biotransformation [26]: Compound metabolized
